Laboratory results from PubChem BioAssay AID248 (DTP/NCI, 2004).
“And” between values parts separate entries of the source, which are not always exact repeats. Equal values may be shown once. Toxic doses and inconclusive results are not listed. Rule as the data show it: active = T/C of 150% or more; inactive = T/C below 125%.

Test system: L1210 leukemia ip in BDF1 mice, survival T/C
Assay: NCI In Vivo Anticancer Drug Screen. Data for tumor model L1210 Leukemia (intraperitoneal) in B6D2F1 (BDF1) mice
Settings: endpoint: mean survival time, higher = longer survival
Summary of the method: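 Read-out is survival time, reported as the treated-group measurement over the vehicle-control measurement.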

[1] = dose: 100.0 mg/kg/injection, schedule: Q04DX003 (ip), vehicle: Klucel (hydroxypropylcellulose) (HPC)
[2] = dose: 100.0 mg/kg/injection, schedule: Q01DX009 (ip), vehicle: saline
[3] = dose: 100.0 mg/kg/injection, schedule: Q04DX003 (ip), vehicle: saline with Tween-80
[4] = dose: 200.0 mg/kg/injection, schedule: Q01DX009 (ip), vehicle: saline
[5] = dose: 200.0 mg/kg/injection, schedule: Q04DX003 (ip), vehicle: saline with Tween-80
[6] = dose: 100.0 mg/kg/injection, schedule: Q04DX002 (ip), vehicle: saline
[7] = dose: 200.0 mg/kg/injection, schedule: Q04DX002 (ip), vehicle: saline
[8] = dose: 50.0 mg/kg/injection, schedule: Q04DX003 (ip), vehicle: saline with Tween-80
[9] = dose: 100.0 mg/kg/injection, schedule: Q01DX009 (ip), vehicle: saline with Tween-80
[10] = dose: 200.0 mg/kg/injection, schedule: Q01DX009 (ip), vehicle: saline with Tween-80
[11] = dose: 400.0 mg/kg/injection, schedule: Q01DX009 (ip), vehicle: saline with Tween-80
[12] = dose: 50.0 mg/kg/injection, schedule: Q01DX001 (ip), vehicle: saline
[13] = dose: 100.0 mg/kg/injection, schedule: Q01DX001 (ip), vehicle: saline
[14] = dose: 200.0 mg/kg/injection, schedule: Q01DX001 (ip), vehicle: saline
[15] = dose: 400.0 mg/kg/injection, schedule: Q01DX001 (ip), vehicle: saline
[16] = dose: 100.0 mg/kg/injection, schedule: Q01DX009 (ip), vehicle: Klucel (hydroxypropylcellulose) (HPC)
[17] = dose: 100.0 mg/kg/injection, schedule: Q04DX003 (ip), vehicle: saline
[18] = dose: 200.0 mg/kg/injection, schedule: Q04DX003 (ip), vehicle: saline
[19] = dose: 400.0 mg/kg/injection, schedule: Q04DX003 (ip), vehicle: saline

Measured: T/C

NC1CCC(CC23CC4CC(CC(C4)C2)C3)CC1 (stereo unspecified)
inactive: dose: 25.0 mg/kg/injection, schedule: Q04DX003 (ip), vehicle: Klucel (hydroxypropylcellulose) (HPC) 110 % of control | dose: 50.0 mg/kg/injection, schedule: Q04DX003 (ip), vehicle: Klucel (hydroxypropylcellulose) (HPC) 102 % of control | [1] 94 % of control and 101 % of control

OC1(c2ccc(F)cc2)c2ccccc2-c2ccccc21
inactive: dose: 75.0 mg/kg/injection, schedule: Q01DX001 (ip), vehicle: other 96 % of control | dose: 150.0 mg/kg/injection, schedule: Q01DX001 (ip), vehicle: other 96 % of control

OC(C1CO1)(C(F)(F)F)C(F)(F)F (stereo unspecified)
inactive: [2] 98 % of control | [3] 92 % of control | [4] 106 % of control | [5] 91 % of control | dose: 400.0 mg/kg/injection, schedule: Q04DX003 (ip), vehicle: saline with Tween-80 97 % of control

Cc1cc2nc3[nH]c(=O)c4c(n3c2cc1C)CCC4
inactive: dose: 50.0 mg/kg/injection, schedule: Q04DX002 (ip), vehicle: saline 87 % of control | [6] 108 % of control | [7] 112 % of control

[N-]=Cc1c(O)cccc1[N+](=O)[O-].[N-]=Cc1cc([N+](=O)[O-])ccc1O.[Ni+2]
inactive: dose: 12.5 mg/kg/injection, schedule: Q04DX003 (ip), vehicle: saline with Tween-80 95 % of control | dose: 25.0 mg/kg/injection, schedule: Q04DX003 (ip), vehicle: saline with Tween-80 98 % of control | [8] 95 % of control | [3] 92 % of control | [5] 86 % of control

CC1=CC(C)(C)NC(=S)N1c1cc(Cl)ccc1Cl
inactive: [9] 87 % of control | [10] 90 % of control | dose: 224.0 mg/kg/injection, schedule: Q01DX Z (ip), vehicle: methylcellulose (MC) 105 % of control | dose: 334.0 mg/kg/injection, schedule: Q01DX Z (ip), vehicle: methylcellulose (MC) 89 % of control | [11] 92 % of control | dose: 500.0 mg/kg/injection, schedule: Q01DX Z (ip), vehicle: methylcellulose (MC) 86 % of control

C1CCC2(CC1)CCNCC2
inactive: [12] 102 % of control

O=c1[nH]cnc2c1ncn2C1OC(CI)C(O)C1O (stereo unspecified)
inactive: dose: 100.0 mg/kg/injection, schedule: Q01DX005 (ip), vehicle: saline 95 % of control | dose: 200.0 mg/kg/injection, schedule: Q01DX005 (ip), vehicle: saline 101 % of control

CNc1ncnc2c1ccn2C1OC(CO)C(O)C1O (stereo unspecified)
inactive: dose: 50.0 mg/kg/injection, schedule: Q01DX001 (ip), vehicle: carboxymethylcellulose (CMC) 110 % of control

CC(C)CCCC(C)C1CCC2C3CCC4CC(N5CCCC5)=CCC4(C)C3CCC12C (stereo unspecified)
inactive: dose: 75.0 mg/kg/injection, schedule: Q04DX003 (sc), vehicle: steriod suspending solution 96 % of control | dose: 150.0 mg/kg/injection, schedule: Q04DX003 (sc), vehicle: steriod suspending solution 96 % of control | dose: 300.0 mg/kg/injection, schedule: Q04DX003 (sc), vehicle: steriod suspending solution 102 % of control

CC(CC(C)(C)C)C(=O)Cl (stereo unspecified)
inactive: [13] 95 % of control | [14] 92 % of control | [15] 108 % of control

COc1cccc(C(=O)O)c1[N+](=O)[O-]
inactive: dose: 50.0 mg/kg/injection, schedule: Q01DX001 (ip), vehicle: other 103 % of control | dose: 100.0 mg/kg/injection, schedule: Q01DX001 (ip), vehicle: other 97 % of control | dose: 100.0 mg/kg/injection, schedule: Q04DX002 (ip), vehicle: Klucel (hydroxypropylcellulose) (HPC) 106 % of control | dose: 200.0 mg/kg/injection, schedule: Q01DX001 (ip), vehicle: other 115 % of control | dose: 200.0 mg/kg/injection, schedule: Q04DX002 (ip), vehicle: Klucel (hydroxypropylcellulose) (HPC) 95 % of control | dose: 400.0 mg/kg/injection, schedule: Q01DX001 (ip), vehicle: other 97 % of control | dose: 400.0 mg/kg/injection, schedule: Q04DX002 (ip), vehicle: Klucel (hydroxypropylcellulose) (HPC) 88 % of control

C(=N\OCc1ccccc1)/c1ccccn1
inactive: [16] 94 % of control | [1] 96 % of control | dose: 200.0 mg/kg/injection, schedule: Q01DX009 (ip), vehicle: Klucel (hydroxypropylcellulose) (HPC) 101 % of control | dose: 200.0 mg/kg/injection, schedule: Q04DX003 (ip), vehicle: Klucel (hydroxypropylcellulose) (HPC) 97 % of control | dose: 400.0 mg/kg/injection, schedule: Q01DX009 (ip), vehicle: Klucel (hydroxypropylcellulose) (HPC) 100 % of control | dose: 400.0 mg/kg/injection, schedule: Q04DX003 (ip), vehicle: Klucel (hydroxypropylcellulose) (HPC) 103 % of control

C=CS(=O)(=O)c1ccc([N+](=O)[O-])cc1
inactive: dose: 6.25 mg/kg/injection, schedule: Q04DX002 (ip), vehicle: saline with Tween-80 92 % of control | dose: 12.5 mg/kg/injection, schedule: Q04DX002 (ip), vehicle: saline with Tween-80 101 % of control | dose: 25.0 mg/kg/injection, schedule: Q04DX002 (ip), vehicle: saline with Tween-80 94 % of control

COC(=O)C(CC/C(=N\Nc1ccc([N+](=O)[O-])cc1[N+](=O)[O-])c1ccccc1)C(=O)OC
inactive: dose: 25.0 mg/kg/injection, schedule: Q01DX001 (ip), vehicle: saline with Tween-80 95 % of control | dose: 50.0 mg/kg/injection, schedule: Q01DX001 (ip), vehicle: saline with Tween-80 88 % of control | dose: 100.0 mg/kg/injection, schedule: Q01DX001 (ip), vehicle: saline with Tween-80 91 % of control

C/C=C(\C)C(=O)Nc1cccc(OC(=O)NC)c1
inactive: [9] 91 % of control | [10] 88 % of control | [11] 91 % of control

NCCNCCNCCN
inactive: [12] 95 % of control | [13] 95 % of control | [2] 93 % of control | [17] 102 % of control | [14] 98 % of control | [4] 93 % of control | [18] 105 % of control | [15] 101 % of control | dose: 400.0 mg/kg/injection, schedule: Q01DX009 (ip), vehicle: saline 109 % of control | [19] 94 % of control

CC(=O)OCC(=O)C1CCC2(C)C3=C(CCC12C)C1(C)CCC(=O)C(C)(C)C1CC3 (stereo unspecified)
inactive: dose: 50.0 mg/kg/injection, schedule: Q01DX001 (sc), vehicle: steriod suspending solution 105 % of control | dose: 100.0 mg/kg/injection, schedule: Q01DX001 (sc), vehicle: steriod suspending solution 94 % of control | dose: 200.0 mg/kg/injection, schedule: Q01DX001 (sc), vehicle: steriod suspending solution 100 % of control | dose: 400.0 mg/kg/injection, schedule: Q01DX001 (sc), vehicle: steriod suspending solution 100 % of control

OC[CH2][Hg][Cl]
inactive: dose: 1.56 mg/kg/injection, schedule: Q01DX009 (ip), vehicle: saline 94 % of control | dose: 3.13 mg/kg/injection, schedule: Q01DX009 (ip), vehicle: saline 86 % of control

CC1CC(C)(C)N=C(C(C)C)O1 (stereo unspecified)
inactive: dose: 12.5 mg/kg/injection, schedule: Q01DX009 (ip), vehicle: saline 100 % of control | dose: 25.0 mg/kg/injection, schedule: Q01DX009 (ip), vehicle: saline 102 % of control | dose: 50.0 mg/kg/injection, schedule: Q01DX009 (ip), vehicle: saline 98 % of control | [8] 95 % of control | [2] 110 % of control | [3] 93 % of control

CC1(C)C(C#N)C(=O)N=C(N)C1C(N)=O (stereo unspecified)
inactive: dose: 25.0 mg/kg/injection, schedule: Q01DX009 (ip), vehicle: Klucel (hydroxypropylcellulose) (HPC) 94 % of control | dose: 50.0 mg/kg/injection, schedule: Q01DX009 (ip), vehicle: Klucel (hydroxypropylcellulose) (HPC) 94 % of control | [16] 94 % of control | [1] 92 % of control

COc1ccc(OC(=O)N2C=Cc3ccccc3C2C#N)cc1 (stereo unspecified)
inactive: [13] 93 % of control | [17] 105 % of control | [14] 97 % of control | [18] 97 % of control | [15] 91 % of control | [19] 97 % of control

O=C(Nc1ccccc1)Nc1cccc([N+](=O)[O-])c1
inactive: [6] 100 % of control | [7] 92 % of control | dose: 400.0 mg/kg/injection, schedule: Q04DX002 (ip), vehicle: saline 103 % of control
